Results published in publication PMC8875126, “Mechanistic Insights into Stereospecific Antifungal Activity of Chiral Fungicide Prothioconazole against Fusarium oxysporum F. sp. cubense” (International Journal of Molecular Sciences, 2022).

Molecular target: T1, N1RIS1_FUSC4 (CYP51 of TR4; Eburicol 14-alpha-demethylase) (Fusarium odoratissimum, UniProt N1RIS1)
T1 construct: gene FOC4_g10015154
T1 sequence (N1RIS1 1-527): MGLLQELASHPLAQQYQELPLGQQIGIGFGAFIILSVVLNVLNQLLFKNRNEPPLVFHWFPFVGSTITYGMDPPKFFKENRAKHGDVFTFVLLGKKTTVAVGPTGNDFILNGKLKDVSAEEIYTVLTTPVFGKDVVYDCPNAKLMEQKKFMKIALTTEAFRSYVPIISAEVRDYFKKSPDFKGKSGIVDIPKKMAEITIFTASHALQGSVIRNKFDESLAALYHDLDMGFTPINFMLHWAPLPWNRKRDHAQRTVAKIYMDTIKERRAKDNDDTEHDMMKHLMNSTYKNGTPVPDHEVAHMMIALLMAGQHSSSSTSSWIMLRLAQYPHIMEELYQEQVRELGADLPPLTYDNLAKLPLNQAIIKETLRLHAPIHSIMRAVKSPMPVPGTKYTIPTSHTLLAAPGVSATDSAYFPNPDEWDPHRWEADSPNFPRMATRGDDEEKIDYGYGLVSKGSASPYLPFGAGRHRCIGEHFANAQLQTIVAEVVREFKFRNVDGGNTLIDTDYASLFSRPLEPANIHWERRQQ
Assay: SPR (Biacore T200, protein amine-coupled on CM5 chip, […] kinetic fit)
Assay type: binding
Conditions: 25 °C; 3.125-50 μM analyte

O[C@](Cc1ccccc1Cl)(Cn1[nH]cnc1=S)C1(Cl)CC1 [R-Pro] was tested, and the Kd was 0.342 nM.
